Laboratory results: US20120010177A1, “MicroRNA Modulators and Method for Identifying And Using The Same” (The Wistar Institute / North Carolina State University, priority 2008, published 2012)
Where two headings read alike, the source gives them in different places. One block for each compound: values may come before it.

Tests used:
[1] = system: miR-21; experiment: miR-21 luciferase reporter (Luc-miR-21) screening assay in HeLa cells; format: cell-based, human; conditions: HeLa Luc-miR-21 reporter; for increase of the luciferase signal: 48 hours, compared to untreated cells
Source text: (§1) MicroRNA miR-21 was selected as a target miRNA due to its involvement as an anti-apoptotic factor in cancer cells and its elevated levels in various cancers such as breast, ovarian, and lung cancer as well as glioblastoma (Chan, et al. (2005) Cancer Res. 65:6029). Lentiviral reporter constructs for miRNA activity were assembled by introducing the complementary sequences of mature miR-21 (5′-UAGCUUAUCAGACUGAUGUUGA-3′; SEQ ID NO:13), miR-30A (5′-CUUUCAGUCGGAUGUUUGCAGC-3′; SEQ ID NO:14) as a specificity control, and a linker sequence (a previously present multiple-cloning site with no detectable recognition by natural miRNAs) downstream of a luciferase reporter gene as a negative control (FIG. 1).
(§2) Luc-miR-21, Luc-miR-30A, and Luc-linker (control) were, by viral infection, introduced into HeLa cells, which express high levels of miR-21, but only low levels of miR-30A (Cheng, et al. (2005) Nucl. Acids Res. 33:1290).
To illustrate the method of the present invention, a primary screen of >1000 compounds was conducted. The library was composed of a collection of novel compounds and the Library of Pharmacologically Active Compounds (LOPAC library, Sigma-Aldrich, St Louis, Mo.). All compounds were stored at a 10 mM concentration in DMSO to keep the DMSO concentration in the actual screen at 0.1% thereby minimizing toxicity. HeLa cells stably expressing the miR-reporter were treated with DMSO ranging from 0.1-1%. Luciferase signals were determined 48 hours after the treatment.
HeLa cells (2500 cells) were plated in each well of 384-well plate 24 hour before the addition of compounds. Compounds at 10 μM final concentration were added to each well. Luciferase signal were determined 48 hours after compound treatment. Using this screening assay, compound 1 was identified as a miR-21 antagonist.

[2] = system: Luc-Linker control; experiment: Luc-linker control luciferase reporter in HeLa cells; format: cell-based, human; conditions: 10 μM, relative to DMSO control
Source text: as §1, §2
(§3) It was subsequently determined whether Compound 2 was a specific inhibitor of miR-21 or whether it could interfere with the general miRNA biogenesis pathway. Thus, HeLa cells stably expressing both the miR-30 luciferase reporter construct and miR-30 were treated with Compound 2.

[3] = system: A172 cells (glioblastoma cells); experiment: Cell viability assay, A172 cells, alone or with antiproliferative agent; format: cell-based; conditions: Homo sapiens, A 172
Source text: (§4) In these assays, A172 cells (glioblastoma cells) were contacted with a miR-21 inhibitor either alone or in combination with a conventional antiproliferative agent (i.e., 5-fluorouracil or curcumin). At the concentrations indicated, no toxic effects on HEK293T (human embryonic kidney) cells were observed.

[4] = system: HEK293T (human embryonic kidney) cells; experiment: Cell viability assay, HEK293T cells; format: cell-based; conditions: 10 μM Compound
Source text: as §4

[5] = system: mature miR-21; experiment: Quantitative RT-PCR of mature miR-21; format: cell-based, human; conditions: for miR-21 RT PCR* (% Decrease as compared to DMSO control): Table 2
Source text: (§5) UNG (Applied Biosystems). […] (Sigma).

[6] = system: primary miR-21 (pri-miR-21); experiment: Quantitative RT-PCR of primary miR-21; format: cell-based, human
Source text: as §5

[7] = system: HCT116 colon cancer cells; experiment: Cell proliferation of HCT116 cells, drug combinations; format: cell-based, human
Source text: The % activity indicates % live cell activity.

[8] = system: mature miR-30; experiment: Quantitative RT-PCR of mature miR-30; format: cell-based, human; conditions: for mature miR-30 level (% of DMSO control): Table 2
Source text: as §5

[9] = system: miR-30; experiment: miR-30 luciferase reporter in HeLa cells stably expressing miR-30; format: cell-based, human; conditions: HeLa cells stably expressing miR-30 reporter and miR-30, 10 μM
Source text: as §1
The specificity of the reporter system was tested by assaying cells which contained both the Luc-miR-30A reporter and a construct expressing exogenous miR-30.
as §3

[10] = system: mature miR-93; experiment: Quantitative RT-PCR of mature miR-93; format: cell-based, human; conditions: for mature miR-93 level, % of DMSO control: Table 2
Source text: as §5

[11] = system: miR-21; experiment: High throughput primary miR-21 FLuc reporter assay (concentration-response); format: cell-based, human; conditions: Table 12 singletons; for AC50: read-out: AC50
Outline: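 HeLa cells carrying a Luc-miR-21 firefly luciferase reporter were treated with compound for 48 h. miR-21 inhibition was read as increased luciferase signal. Concentration-response data were fitted with a four-parameter logistic model.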

[12] = 10 μM Compound + 5FU 0.5 μM, read-out: Cell Viability A172 Cells, Compound + 5FU (0.5 μM)
[13] = 10 μM Compound + Curcumin 10 μM, read-out: Cell Viability A172 Cells, Compound + Curcumin (10 μM)
[14] = 10 μM Compound alone, read-out: Cell Viability A172 Cells, Compound
[15] = MDA-MB-231, MCF-7 and A172 cell lines
[16] = HeLa cells, 10 μM, relative to DMSO

SMILES: Nc1ccc(/N=N/c2ccc([N+](=O)[O-])cc2)cc1 [Compound 1]
- increase of the luciferase signal ([1]; 10 μM): 251%

- EC50 ([1]; Homo sapiens, concentration dependent, read-out: EC50 of increase of luciferase signal): 2 µM
SMILES: C#CCNC(=O)c1ccc(/N=N/c2ccccc2)cc1 [Compound 2, (E)-4-(Phenyldiazenyl)-N-(prop-2-ynyl)benzamide]
- luciferase signal in HeLa cells expressing the Luc-Linker control [2]: did not affect the luciferase signal
- viability at 10 µM [3, 12]: 8%
- viability at 10 µM [3, 13]: 12%
- viability at 10 µM [3, 14]: 84%
- Cell Viability HEK293T Cells [4]: 98%
- mature miR-21 level [5, 15]: suppressed
- miR-21 RT PCR* (% Decrease as compared to DMSO control) [5]: 22%
- reduction of primary miR-21 (pri-miR-21) level ([6]; HeLa cells, 10 μM, compared to DMSO control): 87%
- primary miR-21 level [6, 15]: suppressed
- fold increase of the luciferase signal ([1]; 10 μM): 5 fold
- increase of the luciferase signal ([1]; 10 μM): 485%
- proliferation of HCT116 colon cancer cells, combination with 5-FU ([7]; FIG. 5A): synergistically decrease
- proliferation of HCT116 colon cancer cells, combination with Curcumin ([7]; FIG. 5B): synergistically decrease
- level of exogenous mature miR-30 [8, 16]: not reduced
- mature miR-30 level [8, 15]: no effect
- mature miR-30 level (% of DMSO control) [8]: 110%
- luciferase signal of miR-30 luciferase reporter [9]: no increase of the luciferase signal was detected
- level of endogenous mature miR-93 [10, 16]: not reduced
- mature miR-93 level [10, 15]: no effect
- mature miR-93 level, % of DMSO control [10]: 115%

SMILES: C#CCNC(=O)c1ccc(NNc2ccccc2)cc1 [Compound 3]
- viability at 10 µM [3, 12]: 52%
- viability at 10 µM [3, 13]: 56%
- viability at 10 µM [3, 14]: 75%
- Cell Viability HEK293T Cells [4]: 95%
- miR-21 RT PCR* (% Decrease as compared to DMSO control) [5]: 39%
- mature miR-30 level (% of DMSO control) [8]: 85%
- mature miR-93 level, % of DMSO control [10]: 56%

SMILES: Cn1c2c(c3ccccc3c1=O)C(=O)c1cc3c(cc1-2)OCO3 [Compound 4]
- viability at 10 µM [3, 12]: 62%
- viability at 10 µM [3, 13]: 54%
- viability at 10 µM [3, 14]: 66%
- Cell Viability HEK293T Cells [4]: 98%
- miR-21 RT PCR* (% Decrease as compared to DMSO control) [5]: 12%
- mature miR-30 level (% of DMSO control) [8]: 136%
- mature miR-93 level, % of DMSO control [10]: 116%

SMILES: O=c1[nH]cc(F)c(=O)[nH]1 [Compound 5-FU, 5-fluorouracil, reference compound]
- mature miR-21 expression ([5]; HCT116 colon cancer cells and A172 glioblastoma cells, FIG. 6B): increased
- primary miR-21 expression ([6]; HCT116 colon cancer cells and A172 glioblastoma cells, FIG. 6A): increased

SMILES: O=C1c2cc3c(cc2-c2[nH]c(=O)c4ccccc4c21)OCO3 [Compound 5]
- viability at 10 µM [3, 12]: 45%
- viability at 10 µM [3, 13]: 40%
- viability at 10 µM [3, 14]: 70%
- Cell Viability HEK293T Cells [4]: 79%

SMILES: COc1ccc2c(c1[N+](=O)[O-])CCC1C2CC[C@]2(C)C(=O)CCC12 (stereo partly shown) [Compound 6]
- viability at 10 µM [3, 12]: 47%
- viability at 10 µM [3, 13]: 39%
- viability at 10 µM [3, 14]: 71%
- Cell Viability HEK293T Cells [4]: 97%
- miR-21 RT PCR* (% Decrease as compared to DMSO control) [5]: 34%
- mature miR-30 level (% of DMSO control) [8]: 73%
- mature miR-93 level, % of DMSO control [10]: 83%

SMILES: COc1ccc2c(c1N)CCC1C2CC[C@]2(C)C(=O)CCC12 (stereo partly shown) [Compound 7]
- viability at 10 µM [3, 12]: 54%
- viability at 10 µM [3, 13]: 43%
- viability at 10 µM [3, 14]: 87%
- Cell Viability HEK293T Cells [4]: 86%

SMILES: COc1cc2c(cc1N)C1CC[C@]3(C)C(=O)CCC3C1CC2 (stereo partly shown) [Compound 8]
- viability at 10 µM [3, 12]: 78%
- viability at 10 µM [3, 13]: 57%
- viability at 10 µM [3, 14]: 100%
- Cell Viability HEK293T Cells [4]: 89%

SMILES: CCCNC(=O)OCc1cccnc1Sc1ccc(C)cc1 [Compound 319]
- AC50 ([11]; Homo sapiens): 16.5 µM

SMILES: COC(=O)c1ccc(CN2C(=O)NC3(CCCCC3)C2=O)cc1 [Compound 320]
- AC50 ([11]; Homo sapiens): 16.5 µM

SMILES: O=c1n(Cc2ccccc2)nc2n1-c1ccccc1SC2 [Compound 321]
- AC50 ([11]; Homo sapiens): 16.5 µM

SMILES: CC(=O)N1N=C(c2ccc(C)cc2)OC1c1cccnc1 (stereo not shown) [Compound 322]
- AC50 ([11]; Homo sapiens): 16.5 µM

SMILES: Cc1cccc2c1-c1sc(C(=O)Nc3cccnc3)cc1CO2 [Compound 323, CC1═C/C═C\C2═C\1\C3═C(CO2)\C═C(/S3)C(═O)NC4═C/C═C\N═C\4]
- Curve Class ([11]; concentration-response curve class): −2.2
- Efficacy ([11]; negative values as printed): −70.23
- AC50 [11]: 16.5 µM

SMILES: CCCCCc1nc2c(=O)n(C)c3ccccc3c2o1 [Compound 324]
- AC50 ([11]; Homo sapiens): 16.5 µM

SMILES: CN1CCN(/N=C/c2nc(-c3ccc(Cl)cc3)n3ccccc23)CC1 [Compound 325]
- AC50 ([11]; Homo sapiens): 16.5 µM

SMILES: C#CN/C(=N\CC=C)SCCc1ccccc1 [Compound 326]
- AC50 ([11]; Homo sapiens): 16.5 µM

SMILES: c1ccc(-c2nnc(CN3CCCCC3)o2)cc1 [Compound 327]
- AC50 ([11]; Homo sapiens): 16.5 µM

SMILES: O=c1c(NCc2cccs2)nccn1-c1ccc(F)cc1 [Compound 328]
- AC50 ([11]; Homo sapiens): 16.5 µM

SMILES: CCOC(=O)N1CCN(C(=O)CSCc2ccccc2Cl)CC1 [Compound 329]
- AC50 ([11]; Homo sapiens): 16.5 µM
